Compound | melting point
COc1ccc2c(c1)cc(C(OC)(c1ccccc1)c1cc3cc(OC)ccc3n1S(=O)(=O)c1ccccc1)n2S(=O)(=O)c1ccccc1 [Example 7, Di-(5-Methyloxy-1-phenylsulphonylindol-2-yl)phenyl-methyloxymethane] | 100 to 101 °C
CN(C)Cc1c(C(O)c2cc3ccccc3n2S(=O)(=O)c2ccccc2)n(S(=O)(=O)c2ccccc2)c2ccccc12 (centres unmarked) [Example 8, (3-Dimethylaminomethyl-1-phenylsulphonylindol-2-yl)(1-phenylsulphonylindol-2-yl)methan-1-ol] | 116 to 117 °C
COc1ccc2cc(C(O)c3cc4ccccc4n3S(=O)(=O)c3ccccc3)n(S(=O)(=O)c3ccccc3)c2c1 (centres unmarked) [Example 11, 6-Methoxy-1-phenylsulphonyl-1H-2-indolyl(1-phenylsulphonyl-1H-2-indolyl)methanol] | 180 °C
COc1cccc2cc(C(O)c3cc4ccccc4n3S(=O)(=O)c3ccccc3)n(S(=O)(=O)c3ccccc3)c12 (centres unmarked) [Example 12, 7-Methoxy-1-phenylsulphonyl-1H-2-indolyl(1-phenylsulphonyl-1H-2-indolyl)methanol] | 148 to 150 °C
COc1ccc2c(c1)cc(C(=O)c1cc3ccccc3n1S(=O)(=O)c1ccccc1)n2S(=O)(=O)c1ccccc1 [Example 17, (5-Methoxy-N-phenylsulphonylindol-2-yl)-(N-phenylsulphonylindol-2-yl)methan-1-one] | 205 °C
COc1ccc2[nH]c(C(=O)c3cc4cc(OC)ccc4[nH]3)cc2c1 [Example 21, Bis(5-methoxyindol-2-yl)-1-methanone] | 202 to 204 °C
COc1ccc2[nH]c(C(=O)c3cc4ccccc4s3)cc2c1 [Example 28, Benzo[b]thiophen-2-yl(5-methoxy-1H-2-indolyl)-1-methanone] | 200 °C
COc1cccc2cc(C(=O)c3cc4ccccc4n3S(=O)(=O)c3ccccc3)n(S(=O)(=O)c3ccccc3)c12 [Example 29, 7-Methoxy-1-phenylsulphonyl-1H-2-indolyl(1-phenyl-sulphonyl-1H-2-indolyl)methanone] | 129 to 130 °C
COc1cccc2cc(C(=O)c3cc4ccccc4[nH]3)[nH]c12 [Example 30, 7-Methoxy-1H-2-indolyl(1H-2-indolyl)methanone] | 151 °C
COc1ccc2cc(C(=O)c3cc4ccccc4n3S(=O)(=O)c3ccccc3)n(S(=O)(=O)c3ccccc3)c2c1 [Example 31, 6-Methoxy-1-phenylsulphonyl-1H-2-indolyl(1-phenylsulphonyl-1H-2-indolyl)methanone] | 184 to 186 °C
COc1ccc2cc(C(=O)c3cc4ccccc4[nH]3)[nH]c2c1 [Example 32, 6-Methoxy-1H-2-indolyl(1H-2-indolyl)methanone] | 184 to 186 °C
O=C(c1cc2ccccc2[nH]1)c1cc2cc(OCc3ccccc3)ccc2[nH]1 [Example 42, 5-Benzyloxy-1H-2-indolyl(1H-2-indolyl)methanone] | 199 to 201 °C
O=C(c1cc2ccccc2[nH]1)c1cc2cc(O)ccc2[nH]1 [Example 43, 5-Hydroxy-1H-2-indolyl(1H-2-indolyl)methanone] | > 220 °C
CCOc1ccc2[nH]c(C(=O)c3cc4ccccc4[nH]3)cc2c1 [Example 44, 5-Ethoxy-1H-2-indolyl(1H-2-indolyl)methanone] | 168 to 169 °C
O=C(c1cc2ccccc2[nH]1)c1cc2cc(OCCCCI)ccc2[nH]1 [Example 47, 5-(4-Iodobutyloxy)-1H-2-indolyl(1H-2-indolyl)methanone] | 110 to 113 °C
O=C(c1cc2ccccc2[nH]1)c1cc2cc(OCC3CCCCC3)ccc2[nH]1 [Example 49, 5-Cyclohexylmethyloxy-1H-2-indolyl(1H-2-indolyl)-methanone] | 185 °C (dec.)
O=C(c1cc2ccccc2[nH]1)c1cc2cc(OCCCCCI)ccc2[nH]1 [Example 50, 5-(5-Iodopentyloxy)-1H-2-indolyl(1H-2-indolyl)methanone] | 127 to 130 °C
CN(C)CC(=O)Oc1ccc2[nH]c(C(=O)c3cc4ccccc4[nH]3)cc2c1 [Example 56] | 215 to 217 °C
CCC(=O)Oc1ccc2[nH]c(C(=O)c3cc4ccccc4[nH]3)cc2c1 [Example 57] | > 230 °C

The remaining lines, values ahead:

melting point | Compound
159 to 160 °C | COc1ccc2c(c1)cc(Cc1cc3cc(OC)ccc3n1S(=O)(=O)c1ccccc1)n2S(=O)(=O)c1ccccc1 [Example 71, Bis(5-methoxy-N-phenylsulphonylindol-2-yl)methane]
98 to 100 °C | COc1ccc2c(c1)cc(Cc1cc3ccccc3n1S(=O)(=O)c1ccccc1)n2S(=O)(=O)c1ccccc1 [Example 72, (5-Methoxy-N-phenylsulphonylindol-2-yl)-(N-phenyl-sulphonylindol-2-yl)methane]
168 to 170 °C | COc1ccc2c(c1)cc(Cc1cc3cccc(OC)c3n1S(=O)(=O)c1ccccc1)n2S(=O)(=O)c1ccccc1 [Example 73, (5-Methoxy-N-phenylsulphonylindol-2-yl)-(7-methoxy-N-phenylsulphonylindol-2-yl)methane]
112 °C | COc1ccc2[nH]c(C(=O)c3cc4ccccc4[nH]3)cc2c1 [Example 75, (5-Methoxyindol-2-yl)-(indol-2-yl)methanone]
> 350 °C | COc1ccc2[nH]c3c(c2c1)C1=C(C(=O)NC1=O)c1c([nH]c2ccccc12)C3 [Example 82, 1,2,3,8,9,10-Hexahydro-5-methoxyindolo[3′,2′:5,6]-pyrrolo[3′,4′:3,4]-cyclohepta[b]indole-1,3-dione]
> 350 °C | CN1C(=O)C2=C(C1=O)c1c([nH]c3ccccc13)CCc1[nH]c3ccccc3c12 [Example 84, 1,2,3,8,9,10,11-Heptahydro-2-methylindolo[3′,2′:5,6]-pyrrolo[3′,4′:3,4]-cycloocta[b]indole-1,3-dione]
> 350 °C | O=C1C2=C(C(=O)N1COCc1ccccc1)c1c([nH]c3ccccc13)Cc1[nH]c3ccccc3c12 [Example 85, 2-Benzyloxymethyl-1,2,3,8,9,10-hexahydroindolo-[3′,2′:5,6]-pyrrolo[3′,4′:3,4]-cyclohepta[b]indole-1,3-dione]
> 350 °C | CN(C)CCn1c2c(c3ccccc31)C1=C(C(=O)OC1=O)c1c([nH]c3ccccc13)C2 [Example 87, 3,8,9,10-Tetrahydro-8-[2-(N,N-dimethylamino)ethyl]-1H-indolo[3′,2′:5,6]furo[3′,4′:3,4]cyclohepta[b]indole-1,3-dione]
164 to 165 °C | CN(C)CCn1c2c(c3ccccc31)C1=C(C(=O)N(COCc3ccccc3)C1=O)c1c([nH]c3ccccc13)C2 [Example 88, 2-Benzyloxymethyl-1,2,3,8,9,10-hexahydro-8-[2-(N,N-di-methylamino)ethyl]indolo[3′,2′:5,6]pyrrolo[3′,4′:3,4]-cyclohepta[b]indole-1,3-dione]
213 to 214 °C | CN(C)CCn1c2c(c3ccccc31)C1=C(C(=O)NC1=O)c1c([nH]c3ccccc13)C2 [Example 90, 1,2,3,8,9,10-Hexahydro-8-[2-(N,N-dimethylamino)ethyl]-indolo[3′,2′:5,6]pyrrolo[3′,4′:3,4]cyclohepta[b]indole-1,3-dione]

From US6812243B2, “Indole derivatives and their use for the treatment of malignant and other diseases based on pathological proliferation” (Zentaris AG, priority 1998, dated 2004)
